Experimental findings from ChEMBL document CHEMBL1145684, “New Guaiane Metabolites from the Caribbean Gorgonian Coral, Pseudopterogorgia americana” (J Nat Prod, 1997) are described below.

≈ marks a conversion by molar mass, not a printed value.

The test system of one data set is KM12. Nature of the data set: Cytotoxicity against human KM12 cells. It is filed as functional, cell-based.
In a further data set the test system is HeLa. The experiment in a line: Cytotoxicity against human HeLa cells. Particulars: read-out: ED50 (the source's name). In kind it is functional.
Data set [1] is described as follows: Cytotoxicity against chinese hamster CHOK1 cells. In kind it is cell-based, Cricetulus griseus. Particulars: CHO-K1 cells, read-out: ED50 (the source's name).
A further data set concerns MOLT-4. The experiment in a line: Cytotoxicity against human MOLT4 cells. It is filed as functional, cell-based.

As a reminder, the IC50 is the midpoint of a concentration-inhibition curve. Molecule `CC1=C2CC3=C(C)C(=O)O[C@H]3C[C@@H](C)[C@@H]2CC1` [AMERICANOLIDE D] returned an IC50 with KM12 of 0.1 µg/mL (≈ 0.43 µM). Further, the EC50 in the data set on HeLa was found to be 30 µg/mL (≈ 129 µM). For the same molecule, in data set [1], the CC50 turned out to be 100 µg/mL (≈ 430 µM).
As for `CO[C@]12C[C@@H](C)[C@]34O[C@H]3C[C@@]3(C)O[C@@]43CC1=C(C)C(=O)O2` [METHOXYAMERICANOLIDE A], in the data set with MOLT-4, the IC50 is 0.1 µg/mL (≈ 0.342 µM).
